For 40 molecules, cytotoxicity results are on record in ChEMBL document CHEMBL3507680, “University of Dundee, Gates Library screen for HepG2 cell viability”.

The structures appear in SMILES notation.

A short description of the data set: Human HepG2 cell viability assay in 384 well format. Type of data set: toxicity, cell-based. Further details: dose 125 nL, time 70.5 hour; concentration not given beside the values. Particulars: HepG2 cells, read-out: Inhibition.

As to `COCCOc1ccc(NC(=O)C2CCCN(C(N)=O)C2)cn1` (stereo not given), the cytotoxicity at 70.5 h amounted to 4.12%.
The result for `Cc1ccc(-c2nnc(CN3CCOC(Cn4cccn4)C3)o2)cc1` (stereo not given) reads -7.48%; that for `Cc1cnc(NC(=O)c2ccc(-n3ncc(C#N)c3N)cc2)s1`, 8.89%; that for `COc1ccc(C2=CCN(C(=O)CN(C)CC(N)=O)CC2)cc1`, -2.43%.
As for `Cc1cccc(C2(NC(=O)CCN3C(=O)CCC3=O)CCCC2)c1`, the figure is -6.61%; as for `CCN1CCN(C2CCN(Cc3c(C)noc3C)CC2)C1=O`, 25.5%.
The result for `COC(=O)N1CCCC(C(=O)NCc2cc3cccc(OC)c3o2)C1` (stereo not given) reads -6.62%.
`CCCC(Nc1c(C#N)c(=O)n(C)c(=O)n1C)c1ccc(F)cc1F` (stereo not given): the cytotoxicity at 70.5 h stood at 9.48%.
The result for `CC(=O)c1cccc(OCC(=O)NS(=O)(=O)c2ccc(C)s2)c1` reads 28.6%.
In the case of `CCOC(=O)C1CCN(Cc2csc(C(C)(C)C)n2)CC1`, the cytotoxicity at 70.5 h is -2.2%.
As for `COc1cccc2cc(CNC(C)(C)C(=O)N3CCC(O)CC3)oc12`, the figure is 14.1%; as for `CCc1n[nH]c(C2CN(C(=O)c3cnns3)CCO2)n1` (stereo not given), 2.09%; as for `c1ccc(-c2nnc(CNCCn3cccn3)o2)cc1`, -1.94%.
Regarding `Cc1nc(C)n(CC2CCCN2CCCOc2ccc(F)cc2)n1` (stereo not given), the cytotoxicity at 70.5 h is 6.79%.
The result for `CNS(=O)(=O)CCCN1CCCC1c1cc(C)on1` (stereo not given) reads 1.72%; that for `O=C(CCc1cccnc1)N1CCCC(n2cncn2)C1` (stereo not given), -2.85%; that for `Cc1cnn(CC2CN(c3ncnc4ccccc34)CCO2)c1` (stereo not given), 31.7%.
As for `COCc1ccccc1C(=O)N1CCCC(n2nc(C)cc2C)C1` (stereo not given), the figure is 24.9%; as for `O=C(CCCc1ncc(-c2ccccc2)o1)N1CCN(CCO)CC1`, -7.53%; as for `Cc1cc(C2CCCN(CCCS(=O)(=O)c3ccccc3)C2)n[nH]1` (stereo not given), -14%.
As for `O=C(c1cccc2[nH]ncc12)N1CCCC1c1noc(C2CC2)n1` (stereo not given), the figure is -18.3%; as for `Cc1nccn1CC1CCCN1S(=O)(=O)Cc1ccccc1F` (stereo not given), -7.26%; as for `Cc1nn(C)c(Cl)c1C(=O)NCC(c1ccsc1)N(C)C` (stereo not given), -21.3%.
On to `CCC(CC)C(CNC(=O)Nc1ccc(C)cc1)N1CCOCC1` (stereo not given), for which the cytotoxicity at 70.5 h was -15.7%.
The result for `Cc1ccc(CNC(=O)NCc2csc(C)n2)cn1` reads -21.2%; that for `Cc1ccc(CNC(=O)CCSCc2csc(C)n2)cn1`, -11.2%.
The result for `N#Cc1ccccc1N1CCCN(C(=O)CCn2cccn2)CC1` reads -23%.
The result for `Cc1cc(CN2CCC(c3ccnn3CCO)CC2)no1` reads -15.5%; that for `Cc1noc2ncc(C(=O)N3CCCC3c3ccncc3)cc12` (stereo not given), 33.6%.
As to `N#Cc1ccccc1N1CCCN(C(=O)CCc2nccs2)CC1`, the cytotoxicity at 70.5 h is -21.6%.
The result for `Cn1cc(CCNC(=O)NCc2nnc3n2CCC3)cn1` reads -22.4%; that for `NC(=O)C1CCCN(C(=O)c2cnc3c(cnn3C3CCCC3)c2)C1` (stereo not given), 33%.
The result for `OC(CN1CCN(Cc2nnc(C3CC3)o2)CC1)c1ccccc1` (stereo not given) reads -20.3%; that for `Cc1cnn(CC2CCCN2CCc2nc3ccccc3c(=O)[nH]2)c1` (stereo not given), 0.164%; that for `Cc1cnn(CC2CCCN2C(=O)Cc2n[nH]c3ccccc23)c1` (stereo not given), -14.5%.
As for `Cc1cccc(NC2CCN(C(=O)Nc3cc(C)on3)CC2)n1`, the cytotoxicity at 70.5 h is -14.3%.
Turning to `CC(O)CN1CCN(C(=O)c2cccn2Cc2ccncc2)CC1` (stereo not given), the cytotoxicity at 70.5 h is -16.4%.
As for `CCC(CC)C(O)CNC(=O)Nc1cc(C)nn1C` (stereo not given), the figure is -17.8%; as for `Cc1cnn(CC2CCCCN2Cc2nc(N)c3ccccc3n2)c1` (stereo not given), -6.17%.
The result for `Cc1cnn(CC2CCCN2C(=O)c2cccc(-n3cnnn3)c2)c1` (stereo not given) reads -28.5%.
